Reference: the supplement of paper PMC10307832

Legend:
Test in all cases: relative viability (nuclei count vs DMSO), 5 days (fraction); higher = more cells survive
[1] = compound: O=C(NCCCNc1nc(Nc2cccc(NC(=O)N3CCCC3)c2)ncc1I)c1cccs1 [BX 795] + Cc1nc(Nc2ncc(C(=O)Nc3c(C)cccc3Cl)s2)cc(N2CCN(CCO)CC2)n1 [Dasatinib] (partner 0.075 µM)
How it was run: (§1)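 Lung cancer cell lines were seeded in 1536-well plates and dosed by pin tool the next day, with either a single drug or a fixed anchor-drug dose combined with five library-drug doses (not always all listed) spaced in √10 steps. Five days later, one step fixed the cells and stained their nuclei (final 0.05% Triton X-100, 1% formaldehyde, 1 ug/ml Hoechst), and nuclei were counted on 4× images. Relative viability is the nuclei count in treated wells divided by the count in vehicle wells, and each value is the median of duplicate plates.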

[2] = compound: O=C(NCCCNc1nc(Nc2cccc(NC(=O)N3CCCC3)c2)ncc1I)c1cccs1 [BX 795] + CC(=O)Nc1cccc(-n2c(=O)n(C3CC3)c(=O)c3c(Nc4ccc(I)cc4F)n(C)c(=O)c(C)c32)c1 [Trametinib] (partner 0.02 µM)
How it was run: as §1

[3] = compound: O=C(NCCCNc1nc(Nc2cccc(NC(=O)N3CCCC3)c2)ncc1I)c1cccs1 [BX 795] + Nc1ncn([C@H]2C[C@H](O)[C@@H](CO)O2)c(=O)n1 [Decitabine] (partner 2 µM)
How it was run: as §1

[4] = compound: O=C(NCCCNc1nc(Nc2cccc(NC(=O)N3CCCC3)c2)ncc1I)c1cccs1 [BX 795] + NC(=O)Nc1cc(-c2cccc(F)c2)sc1C(=O)N[C@H]1CCCNC1 [AZD7762] (partner 0.2 µM)
How it was run: as §1

[5] = compound: O=C(NCCCNc1nc(Nc2cccc(NC(=O)N3CCCC3)c2)ncc1I)c1cccs1 [BX 795] + CCNC(=O)c1noc(-c2cc(C(C)C)c(O)cc2O)c1-c1ccc(CN2CCOCC2)cc1 [Luminespib] (partner 0.01 µM)
How it was run: as §1

[6] = compound: O=C(NCCCNc1nc(Nc2cccc(NC(=O)N3CCCC3)c2)ncc1I)c1cccs1 [BX 795] + Nc1nc2[nH]cc(CCc3ccc(C(=O)N[C@@H](CCC(=O)O)C(=O)O)cc3)c2c(=O)[nH]1 [Pemetrexed] (partner 0.2 µM)
How it was run: as §1

[7] = compound: O=C(NCCCNc1nc(Nc2cccc(NC(=O)N3CCCC3)c2)ncc1I)c1cccs1 [BX 795] + CC(=O)c1c(C)c2cnc(Nc3ccc(N4CCNCC4)cn3)nc2n(C2CCCC2)c1=O [Palbociclib] (partner 0.5 µM)
How it was run: as §1

[8] = compound: O=C(NCCCNc1nc(Nc2cccc(NC(=O)N3CCCC3)c2)ncc1I)c1cccs1 [BX 795] + N=C(N)NC(=N)NCCc1ccccc1 [Phenformin] (partner 250 µM)
How it was run: as §1

[9] = compound: O=C(NCCCNc1nc(Nc2cccc(NC(=O)N3CCCC3)c2)ncc1I)c1cccs1 [BX 795] + O=C(CCCCCCC(=O)Nc1ccccc1)NO [Vorinostat] (partner 1 µM)
How it was run: as §1

[10] = compound: O=C(NCCCNc1nc(Nc2cccc(NC(=O)N3CCCC3)c2)ncc1I)c1cccs1 [BX 795] + COc1cccc2cc(-c3nc([C@H]4CC[C@H](C(=O)O)CC4)n4ncnc(N)c34)[nH]c12 [OSI-027] (partner 0.5 µM)
How it was run: as §1

[11] = compound: O=C(NCCCNc1nc(Nc2cccc(NC(=O)N3CCCC3)c2)ncc1I)c1cccs1 [BX 795] + Cc1cc(Nc2cc(N3CCN(C)CC3)nc(Sc3ccc(NC(=O)C4CC4)cc3)n2)n[nH]1 [Tozasertib] (partner 0.1 µM)
How it was run: as §1

[12] = compound: O=C(NCCCNc1nc(Nc2cccc(NC(=O)N3CCCC3)c2)ncc1I)c1cccs1 [BX 795] + O=C(c1cc(Cc2n[nH]c(=O)c3ccccc23)ccc1F)N1CCN(C(=O)C2CC2)CC1 [Olaparib] (partner 8 µM)
How it was run: as §1

[13] = compound: O=C(NCCCNc1nc(Nc2cccc(NC(=O)N3CCCC3)c2)ncc1I)c1cccs1 [BX 795]
How it was run: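 Five library-drug doses spaced by √10 were pinned onto vehicle-anchored 1536-well plates of lung cancer cell lines that had been kept overnight at 37 °C. Cells went 5 days without medium change, then were fixed, permeabilised and Hoechst-stained together, imaged at 4× and counted by MetaXpress. Viability is the ratio of treated-well to vehicle-well nuclei, taken as a median over plates. Plates required control CV below 25% and at least one doubling.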

Cell Line: NCI-H522
- relative viability ([1]; first compound 0.04 µM): 0.972
- relative viability ([1]; first compound 0.1265 µM): 0.769
- relative viability ([1]; first compound 0.4 µM): 0.764
- relative viability ([1]; first compound 1.265 µM): 0.849
- relative viability ([2]; first compound 0.04 µM): 0.84
- relative viability ([2]; first compound 0.1265 µM): 0.781
- relative viability ([2]; first compound 0.4 µM): 0.803
- relative viability ([2]; first compound 1.265 µM): 0.616
- relative viability ([3]; first compound 0.04 µM): 0.556
- relative viability ([3]; first compound 0.1265 µM): 0.657
- relative viability ([3]; first compound 0.4 µM): 0.73
- relative viability ([3]; first compound 1.265 µM): 0.71
- relative viability ([4]; first compound 0.04 µM): 0.716
- relative viability ([4]; first compound 0.1265 µM): 0.811
- relative viability ([4]; first compound 0.4 µM): 0.777
- relative viability ([4]; first compound 1.265 µM): 0.785
- relative viability ([5]; first compound 0.04 µM): 1.41
- relative viability ([5]; first compound 0.1265 µM): 1.23
- relative viability ([5]; first compound 0.4 µM): 1.02
- relative viability ([5]; first compound 1.265 µM): 1.01
- relative viability ([6]; first compound 0.04 µM): 1.13
- relative viability ([6]; first compound 0.1265 µM): 1.16
- relative viability ([6]; first compound 0.4 µM): 1.08
- relative viability ([6]; first compound 1.265 µM): 1.02
- relative viability ([7]; first compound 0.04 µM): 0.958
- relative viability ([7]; first compound 0.1265 µM): 0.969
- relative viability ([7]; first compound 0.4 µM): 0.943
- relative viability ([7]; first compound 1.265 µM): 0.982
- relative viability ([8]; first compound 0.04 µM): 0.645
- relative viability ([8]; first compound 0.1265 µM): 0.643
- relative viability ([8]; first compound 0.4 µM): 0.681
- relative viability ([8]; first compound 1.265 µM): 0.668
- relative viability ([9]; first compound 0.04 µM): 0.9
- relative viability ([9]; first compound 0.1265 µM): 0.864
- relative viability ([9]; first compound 0.4 µM): 0.875
- relative viability ([9]; first compound 1.265 µM): 0.72
- relative viability ([10]; first compound 0.04 µM): 0.801
- relative viability ([10]; first compound 0.1265 µM): 0.71
- relative viability ([10]; first compound 0.4 µM): 0.769
- relative viability ([10]; first compound 1.265 µM): 0.685
- relative viability ([11]; first compound 0.04 µM): 0.57
- relative viability ([11]; first compound 0.1265 µM): 0.603
- relative viability ([11]; first compound 0.4 µM): 0.544
- relative viability ([11]; first compound 1.265 µM): 0.569
- relative viability ([12]; first compound 0.04 µM): 0.616
- relative viability ([12]; first compound 0.1265 µM): 0.586
- relative viability ([12]; first compound 0.4 µM): 0.692
- relative viability ([12]; first compound 1.265 µM): 0.658
- relative viability ([13]; 0.04 µM): 0.92
- relative viability ([13]; 0.1265 µM): 0.877
- relative viability ([13]; 0.4 µM): 0.921
- relative viability ([13]; 1.265 µM): 1.01
